Source: patent publication US11142526B2, “Spirocycle compounds and methods of making and using same” (H. Lundbeck A/S, priority 2017, dated 2021)
Where two headings read alike, the source gives them in different places.

What was measured:
MAGL [1] = target: MAGL (Homo sapiens (Human), UniProt Q99685); assay: In vitro competitive activity-based protein profiling (gel-based, FP-Rh or HT-01 probe); format: biochemical
Protocol: In Vitro Competitive Activity-Based Protein Profiling.
Proteomes (human prefrontal cortex or cell membrane fractions) (50 μL, 1.0 mg/mL total protein concentration) were preincubated with varying concentrations of inhibitors at 37° C. After 30 min, FP-Rh or HT-01 (1.0 μL, 50 μM in DMSO) was added and the mixture was incubated for another 30 min at room temperature. Reactions were quenched with SDS loading buffer (15 μL—4×) and run on SDS-PAGE.

MAGL [2] = target: T1, MAGL (Mus musculus (Mouse), UniProt O35678); assay: In vitro competitive activity-based protein profiling, mouse brain proteome; format: biochemical; details: for inhibition at 1 µM: mouse; for IC50: mouse brain
MAGL [3] = target: T1, MAGL; assay: Mouse brain proteomes from inhibitor treated mice (oral gavage, brain MAGL activity 4 h after administration); format: in vivo; details: 5 mg/kg oral gavage
Protocol: Preparation of Mouse Brain Proteomes from Inhibitor Treated Mice.
Inhibitors were administered to wild-type C57B1/6J by oral gavage in a vehicle of polyethylene glycol.

[4] = human PC3, read-out: MAGL Human PC3 (IC50)
[5] = human PC3, read-out: MAGL % Inhibition at 1 μM (human PC3)
[6] = human PFC (prefrontal cortex), read-out: MAGL % Inhibition at 1 μM (human PFC)

T1 sequence (O35678 whole entry): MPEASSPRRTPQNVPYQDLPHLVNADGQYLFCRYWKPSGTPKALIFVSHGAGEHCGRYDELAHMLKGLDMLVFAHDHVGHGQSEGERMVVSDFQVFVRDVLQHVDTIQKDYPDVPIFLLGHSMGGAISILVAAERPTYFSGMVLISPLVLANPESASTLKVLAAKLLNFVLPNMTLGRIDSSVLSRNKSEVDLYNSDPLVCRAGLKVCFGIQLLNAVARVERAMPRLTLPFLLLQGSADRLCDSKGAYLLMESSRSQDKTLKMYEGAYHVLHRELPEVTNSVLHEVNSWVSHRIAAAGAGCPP
MAGL (Homo sapiens (Human), UniProt Q99685), sequence (Q99685 whole entry): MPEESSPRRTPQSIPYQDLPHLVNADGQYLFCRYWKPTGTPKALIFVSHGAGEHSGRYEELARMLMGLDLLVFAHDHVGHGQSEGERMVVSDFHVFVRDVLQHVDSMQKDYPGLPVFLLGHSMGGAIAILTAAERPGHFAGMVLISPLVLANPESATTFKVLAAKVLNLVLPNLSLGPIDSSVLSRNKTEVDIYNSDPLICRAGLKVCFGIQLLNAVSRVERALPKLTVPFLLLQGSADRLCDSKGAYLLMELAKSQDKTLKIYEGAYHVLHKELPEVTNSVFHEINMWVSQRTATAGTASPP

| SMILES | IC50 (MAGL [1]; [4]) [nM] | inhibition at 1 µM (MAGL [2]) [%] | IC50 (MAGL [2]) [nM] | inhibition at 1 µM (MAGL [1]; [5]) [%] | inhibition at 1 µM (MAGL [1]; [6]) [%] | IC50 (MAGL [1]; human PFC (prefrontal cortex), read-out: MAGL Human PFC (IC50)) [nM] | MAGL % Inhibition at 5 mg/kg (Mouse) (MAGL [3]) |
| --- | --- | --- | --- | --- | --- | --- | --- |
| O=C(OC(C(F)(F)F)C(F)(F)F)N1CCC2(CCCN2Cc2cnc3ccc(Cl)cn23)CC1 [Example 229, 1,1,1,3,3,3-Hexafluoropropan-2-yl 1-((6-chloroimidazo[1,2-a]pyridin-3-yl)methyl)-1,8-diazaspiro[4.5]decane-8-carboxylate] | < 100 | > 75 | < 100 |  |  |  | ### (% inhibition is greater than or equal to 75%) |
| CC(C)C(=O)N1CCn2cc(C(=O)NC3(C)CCN(C(=O)OC(C(F)(F)F)C(F)(F)F)CC3)nc2C1 [Example 37, 1,1,1,3,3,3-Hexafluoropropan-2-yl 4-(7-isobutyryl-5,6,7,8-tetrahydroimidazo[1,2-a]pyrazine-2-carboxamido)-4-methylpiperidine-1-carboxylate] | < 100 | > 75 |  | > 75 | > 75 |  | # (% inhibition less or equal to 25%) |
| O=C(OC(C(F)(F)F)C(F)(F)F)N1CCC2(CCCN2C(=O)C2(c3ncc(Cl)cn3)CC2)CC1 [Example 31, 1,1,1,3,3,3-Hexafluoropropan-2-yl 1-(1-(5-chloropyrimidin-2-yl)cyclopropane-1-carbonyl)-1,8-diazaspiro[4.5]decane-8-carboxylate] | < 100 | > 75 |  | > 75 | > 75 |  | ### (% inhibition is greater than or equal to 75%) |
| O=C(OC(C(F)(F)F)C(F)(F)F)N1CCC2(CCCN2Cc2cc3cc(Cl)ccc3s2)CC1 [Example 40, 1,1,1,3,3,3-Hexafluoropropan-2-yl 1-((5-chlorobenzo[b]thiophen-2-yl)methyl)-1,8-diazaspiro[4.5] decane-8-carboxylate] | < 100 | > 75 | < 100 |  |  |  | ### (% inhibition is greater than or equal to 75%) |
| O=C(OC(C(F)(F)F)C(F)(F)F)N1CCC2(CCCN2C(=O)C2(c3cccnn3)CC2)CC1 [Example 179, 1,1,1,3,3,3-Hexafluoropropan-2-yl 1-(1-(pyridazin-3-yl)cyclopropane-1-carbonyl)-1,8-diazaspiro [4.5]decane-8-carboxylate] | < 100 | > 75 |  | > 75 | > 75 |  | ## (% inhibition is less than 75% and greater than 25%) |
| CC1(NC(=O)c2cn3c(n2)CN(C(=O)C2(C)CC2)CC3)CCN(C(=O)OC(C(F)(F)F)C(F)(F)F)CC1 [Example 190, 1,1,1,3,3,3-Hexafluoropropan-2-yl 4-methyl-4-(7-(1-methylcyclopropane-1-carbonyl)-5,6,7,8-tetrahydroimidazo[1,2-a]pyrazine-2-carboxamido) piperidine-1-carboxylate] | < 100 | > 75 |  | > 75 |  |  | # (% inhibition less or equal to 25%) |
| O=C(OC(C(F)(F)F)C(F)(F)F)N1CCC2(CCCN2Cc2ccc3cc(F)ccc3n2)CC1 [Example 56, 1,1,1,3,3,3-Hexafluoropropan-2-yl 1-((6-fluoroquinolin-2-yl)methyl)-1,8-diazaspiro[4.5] decane-8-carboxylate] | < 100 | > 75 | < 100 |  |  |  | ### (% inhibition is greater than or equal to 75%) |
| CN(C(=O)C1(c2cnccn2)CC1)C1(C)CCN(C(=O)OC(C(F)(F)F)C(F)(F)F)CC1 [Example 176, 1,1,1,3,3,3-Hexafluoropropan-2-yl 4-methyl-4-(N-methyl-1-(pyrazin-2-yl)cyclopropane-1-carboxamido) piperidine-1-carboxylate] | < 100 | > 75 |  | > 75 | > 75 |  | # (% inhibition less or equal to 25%) |

Now from value to compound, other results behind:

| IC50 (MAGL [1]; [4]) [nM] | inhibition at 1 µM (MAGL [2]) [%] | IC50 (MAGL [2]) [nM] | inhibition at 1 µM (MAGL [1]; [5]) [%] | inhibition at 1 µM (MAGL [1]; [6]) [%] | IC50 (MAGL [1]; human PFC (prefrontal cortex), read-out: MAGL Human PFC (IC50)) [nM] | SMILES | MAGL % Inhibition at 5 mg/kg (Mouse) (MAGL [3]) |
| --- | --- | --- | --- | --- | --- | --- | --- |
| < 100 | > 75 |  | > 75 | > 75 |  | O=C(OC(C(F)(F)F)C(F)(F)F)N1CCC2(CCCN2C(=O)C2(c3cnc(C4CC4)nc3)CC2)CC1 [Example 38, 1,1,1,3,3,3-Hexafluoropropan-2-yl 1-(1-(2-cyclopropylpyrimidin-5-yl)cyclopropane-1-carbonyl)-1,8-diazaspiro[4.5]decane-8-carboxylate] | ### (% inhibition is greater than or equal to 75%) |
| < 100 | > 75 |  | > 75 | > 75 |  | CC(C)Oc1cnc(C2(C(=O)N3CCCC34CCN(C(=O)OC(C(F)(F)F)C(F)(F)F)CC4)CC2)nc1 [Example 194, 1,1,1,3,3,3-Hexafluoropropan-2-yl 1-(1-(5-isopropoxypyrimidin-2-yl)cyclopropane-1-carbonyl)-1,8-diazaspiro [4.5]decane-8-carboxylate] | ### (% inhibition is greater than or equal to 75%) |
| < 100 | > 75 | < 100 |  |  |  | CN(Cc1cc2cc(Cl)ccc2s1)C1(C)CCN(C(=O)OC(C(F)(F)F)C(F)(F)F)CC1 [Example 62, 1,1,1,3,3,3-Hexafluoropropan-2-yl 4-(((5-chlorobenzo[b]thiophen-2-yl)methyl)(methyl)amino)-4-methylpiperidine-1-carboxylate] | ### (% inhibition is greater than or equal to 75%) |
| < 100 | > 75 |  | > 75 | > 75 |  | O=C(OC(C(F)(F)F)C(F)(F)F)N1CCC2(CCCN2C(=O)c2cc3n(n2)CCN(C2CC2)C3)CC1 [Example 155, 1,1,1,3,3,3-Hexafluoropropan-2-yl 1-(5-cyclopropyl-4,5,6,7-tetrahydropyrazolo [1,5-a]pyrazine-2-carbonyl)-1,8-diazaspiro[4.5] decane-8-carboxylate] | ### (% inhibition is greater than or equal to 75%) |
| < 100 | > 75 |  | > 75 | > 75 |  | Cc1nc2cccnn2c1C(=O)N1CCCC12CCN(C(=O)OC(C(F)(F)F)C(F)(F)F)CC2 [Example 143, 1,1,1,3,3,3-Hexafluoropropan-2-yl 1-(2-methyl-imidazo[1,2-b]pyridazine-3-carbonyl)-1,8-diazaspiro[4.5] decane-8-carboxylate] | ### (% inhibition is greater than or equal to 75%) |
| < 100 | > 75 | < 100 |  |  |  | Cc1ccc2nc(Cl)c(CN3CCCC34CCN(C(=O)OC(C(F)(F)F)C(F)(F)F)CC4)cc2c1 [Example 49, 1,1,1,3,3,3-Hexafluoropropan-2-yl 1-((2-chloro-6-methylquinolin-3-yl)methyl)-1,8-diazaspiro[4.5] decane-8-carboxylate] | ### (% inhibition is greater than or equal to 75%) |
| < 100 | > 75 | < 100 |  |  |  | O=C(OC(C(F)(F)F)C(F)(F)F)N1CCC2(CCCN2Cc2cnc3ccccn23)CC1 [Example 228, 1,1,1,3,3,3-Hexafluoropropan-2-yl 1-(imidazo [1,2-a]pyridin-3-ylmethyl)-1,8-diazaspiro[4.5]decane-8-carboxylate] | ### (% inhibition is greater than or equal to 75%) |
| < 100 | > 75 | < 100 |  |  |  | Cc1c(CN2CCCC23CCN(C(=O)OC(C(F)(F)F)C(F)(F)F)CC3)[nH]c2ccc(F)cc12 [Example 58, 1,1,1,3,3,3-Hexafluoropropan-2-yl 1-((5-fluoro-3-methyl-1H-indol-2-yl)methyl)-1,8-diazaspiro[4.5] decane-8-carboxylate] | ### (% inhibition is greater than or equal to 75%) |
| < 100 | > 75 |  | > 75 | > 75 |  | COCC(C)N1CCn2cc(C(=O)N3CCCC34CCN(C(=O)OC(C(F)(F)F)C(F)(F)F)CC4)nc2C1 (centres unmarked) [Example 169, 1.1,1,3,3,3-Hexafluoropropan-2-yl 1-(7-(1-methoxypropan-2-yl)-5,6,7,8-tetrahydroimidazo [1,2-a]pyrazine-2-carbonyl)-1,8-diazaspiro[4.5] decane-8-carboxylate] | # (% inhibition less or equal to 25%) |
| < 100 | > 75 |  | > 75 | > 75 |  | CC(C)(O)CN1CCn2cc(C(=O)N3CCCC34CCN(C(=O)OC(C(F)(F)F)C(F)(F)F)CC4)nc2C1 [Example 21, 1,1,1,3,3,3-Hexafluoropropan-2-yl 1-(7-(2-hydroxy-2-methylpropyl)-5,6,7,8-tetrahydroimidazo[1,2-a]pyrazine-2-carbonyl)-1,8-diazaspiro[4.5]decane-8-carboxylate] | # (% inhibition less or equal to 25%) |
| < 100 | > 75 | < 100 | > 75 | > 75 | < 100 | O=C(OC(C(F)(F)F)C(F)(F)F)N1CCC2(CCCN2C(=O)c2cn3c(n2)CN(C2CC2)CC3)CC1 [Example 2, 1,1,1,3,3,3-Hexafluoropropan-2-yl 1-(7-cyclopropyl-5,6,7,8-tetrahydroimidazo[1,2-a]pyrazine-2-carbonyl)-1,8-diazaspiro[4.5]decane-8-carboxylate] | ### (% inhibition is greater than or equal to 75%) |
